Source: patent US20250275938A1, “COMPOSITIONS AND METHODS FOR TREATMENT OF CANCER” (SCIROSBIO (FZC), priority 2022, published 2025)

Assays:
[1] = tested on: rat brain tissue; assay: Western blotting and ELISA of brain tissue proteins; type: in vivo; details: i.p. 7 days
[2] = tested on: human hepatocellular carcinoma (HepG2) cells; assay: MTT cell viability assay, HepG2; type: cell-based; details: 24 hours
Experimental: Cell lines and culture conditions. A human hepatocellular carcinoma (HepG2) and ovarian cancer (SKOV3) cells were obtained from National Centre for Cell Science (NCCS), Pune, India. The cells HepG2 and SKOV3 were sub-cultured in Eagle's Minimum Essential Medium (EMEM) and McCoy's 5a supplemented with 10% FBS at 5% CO2 and 37° C. […] The cells were allowed to attach 70% to the surface prior to treatment. A stock solution of all the drugs (10 mg/ml) was made in distilled H2O and diluted to the required concentrations. Suspensions were aspirated 10 times before treatment. Cells treated with vehicle control were used as a control.

[3] = tested on: intracellular ROS in C6 cells; assay: ROS activity by DCF-DA, C6; type: cell-based, rat; details: IC50 concentrations, vs control
Experimental: Determination of ROS activity by DCF-DA. U87MG and C6 cells were seeded at 5×10^3 cells/well in 96 well plates. […] After the treatment period, monolayer cells were stained with DCF-DA stain, and the absorbance was read at 530 nm spectrophotometrically (Molecular Devices Spectra-Max M5, USA). This method is commonly used in ROS investigations and is based on the application of H2DCFDA (acetylated form of DCF), which is consecutively deacetylated inside the cells by intracellular esterase.

[4] = tested on: C6 rat glioma cell line; assay: MTT cell viability assay, C6; type: cell-based; details: for cell viability / anti-proliferative effect (MTT), in words / IC50: C6, 24 hours; for IC50: Rattus norvegicus, individual drug, mean ± SD, no unit in table, test concentrations given in μM, read-out: Inhibitory Concentration at 50% (IC50) C6 Cells
Experimental: (§1) Cell lines and culture conditions. A human glioma cell line, U87MG, a rat glioma cell line, C6, and normal HEK293T (Human Embryonic Kidney) cells were obtained from National Centre for Cell Science (NCCS), Pune, India. The cells were sub-cultured in Dulbecco's Modified Eagle's Medium (DMEM) supplemented with 10% FBS at 5% CO2 and 37° C. At 85% confluence, the cells were harvested using 0.25% trypsin and seeded in 25 cm^2 flasks, 96 well, and 6-well plates, according to the experiment being performed. The cells were allowed to attach 70% to the surface prior to treatment. A stock solution of all the drugs (10 mg/ml) was made in a vehicle and diluted to the required concentrations. Suspensions were aspirated 10 times before treatment. Cells treated with vehicle control were used as a control.
(§2) Cell viability assay. U87MG and C6 cells (5×10^3 cells/ml) were seeded in 96-well plates and exposed to different individual-drug treated groups with varying concentrations (0, 10, 40, 80, 120, and 160 μM) for a period of 24 hours, whereas HEK293T cells (5×10^3 cells/ml) were seeded at the inhibitory concentration (IC) at 50% of drugs, either alone or in combination. The individual-treated groups include Group I: untreated control glioma cells; Group II: TMZ-treated glioma cells; Group III: MET-treated glioma cells; and Group IV: EGCG-treated glioma cells.
(§3) After a 24 hour treatment period, the cells were allowed to react with MTT for 4 hours in dark at 37° C. At the end of the incubation period, the dark purple formazan crystals formed were solubilized with DMSO and the absorbance was measured spectrophotometrically at 595 nm (Molecular Devices Spectra-Max M5, USA). The experiments were repeated at least three times. To determine the cell viability, the percentage of viability was calculated as follows:
(§4) % viability=[(Optical density {OD} of treated cells−OD of Blank)/(OD of control−OD of blank)]×100.
(§5) Calculation of IC50 value. The IC50 of a drug was determined using y=m(x)+c equation (where: ‘y’ & ‘x’ are the respective coordinates of y & x-axis, ‘m’ is the slope and ‘c’ is the constant) derived from the trendlines of each scattered plots MMT assay. […] The IC50 and IC25 were also calculated for the dual combinations. The IC50 for the triple combination was calculated by keeping the IC25 of the dual-combination constant, and the third drug was used in varying concentrations (0, 10, 40, 80, 120, and 160 μM) (Table 1).
(§6) Combination index of drugs. According to the Chou-Talalay method, The statistical Combination Index (CI) of the drugs was performed according to the Chou-Talay method (Ma et al, Stem Cell Reports, 2017 9(6):1948-1960) to determine whether various drug combinations were synergistic, additive, or antagonistic, as shown in Table 1. This was performed for Groups V-IX using the following formula:
(§7) Combination index (CI) of Drugs 1 & 2=(IC50 of drug-1 in combination/IC50 of drug-1 individually)+(IC50 of drug-2 in combination/IC50 of drug-2 individually).

[5] = tested on: SOD, CAT, GPx, GSH in U87MG glioma cells; assay: Antioxidant marker kits (SOD, CAT, GPx, GSH), U87MG; type: cell-based, human; details: vs control
Experimental: (§8) Antioxidant markers. […] All experiments were carried out according to the manufacturer's instructions. Three independent biological replicates were performed for each condition.

[6] = tested on: TBARS in U87MG cells; assay: TBARS (MDA) assay, U87MG; type: cell-based, human; details: vs control
Experimental: Determination of TBARS levels. TBARS (thiobarbituric acid reactive substances), by-products of lipid peroxidation, were analyzed by measuring the concentration of malondialdehyde (MDA). The levels of MDA were measured in cell lysates using TBARS assay (Catalog No. 10009055, Cayman Chemical, Ann Arbor, USA). The concentration of lipid peroxides was calculated as an MDA equivalent using the extinction coefficient for the MDA-TBA complex of 1.56×10^5 M−1 cm^−1 at 532 nm.

[7] = tested on: U87MG human glioma cell line; assay: MTT cell viability assay, U87MG; type: cell-based; details: for IC50: Homo sapiens, U-87 MG, individual drug, mean ± SD, no unit in table, test concentrations given in μM, read-out: Inhibitory Concentration at 50% (IC50) U87MG Cells; for IC50 / cell viability / anti-proliferative effect (MTT), in words: 24 hours; for cell viability / anti-proliferative effect (MTT), in words: U87MG
Experimental: as §1, §2, §3, §4, §5, §6, §7

[8] = tested on: SOD, CAT, GPx, GSH in C6 glioma cells; assay: Antioxidant marker kits (SOD, CAT, GPx, GSH), C6; type: cell-based, rat; details: vs control
Experimental: as §8

[9] = tested on: HEK293T (Human Embryonic Kidney) cells; assay: Trypan blue exclusion cytotoxicity on normal cell line; type: cell-based; details: treated at IC50 values determined in U87MG and C6, 24 hours
Experimental: Cytotoxicity on a normal cell line.
Furthermore, to check for the cytotoxicity of the drugs, a trypan blue dye exclusion assay was performed on a normal cell line, HEK293T, using the IC50 values of each drug, individually and in combination, as determined in U87MG and C6 cells and shown in Table 2.

[10] = as used in the triple combination for CI

Row | SMILES | protein levels of HIF-1α [1] | protein levels of Nrf-2 [1] | cell viability (MTT), in words [2] | intracellular ROS levels (DCF-DA fluorescence intensity) [3] | cell viability / anti-proliferative effect (MTT), in words [4] | cell viability / anti-proliferative effect (MTT), in words ([4]; listed as ECGC) | IC50 [4] [µM] | concentrations of antioxidant markers SOD, CAT, GPx, and GSH [5] | TBARS levels [6] | IC50 [7] [µM] | cell viability / anti-proliferative effect (MTT), in words [7] | cell viability / anti-proliferative effect (MTT), in words ([7]; listed as ECGC) | concentrations of antioxidant markers SOD, CAT, GPx, and GSH [8] | toxicity in normal HEK293T cells [9] | IC25 C6 [4, 10] [µM] | IC25 U87MG [7, 10] [µM]
1 | O=C(O[C@@H]1Cc2c(O)cc(O)cc2O[C@@H]1c1cc(O)c(O)c(O)c1)c1cc(O)c(O)c(O)c1 [EGCG, [(2R,3R)-5,7-dihydroxy-2-(3,4,5-trihydroxyphenyl)-3,4-dihydro-2H-chromen-3-yl] 3,4,5-trihydroxybenzoate] | significantly reduced | significantly reduced | reduction in cell viability in a dose-dependent fashion | increased significantly | reduction in cell viability in a dose-dependent fashion | did not result in significant inhibitory effects | 96 ± 1.76 | significantly enhanced | significantly elevated | 94 ± 1.39 | reduction in cell viability in a dose-dependent fashion | did not result in significant inhibitory effects | significantly enhanced | significant reduction in toxicity |  | 
2 | CN(C)C(=N)N=C(N)N.Cl [MET, 3-(diaminomethylidene)-1,1-dimethylguanidine; hydrochloride] |  |  |  | did not show much effect on ROS levels | reduction in cell viability in a dose-dependent fashion |  | 77 ± 1.42 |  |  | 80 ± 1.19 | reduction in cell viability in a dose-dependent fashion |  |  |  | 38.40 | 34.03
